The results in this text go back to ChEMBL document CHEMBL1155332 (Bioorg Med Chem Lett, 2009).

Common to all, as to format: ADME, organism-based
Series [1] in a line: Cmax in squirrel monkey at 10 mg/kg. Further details: dose 10 mg/kg. To be noted: saimiri, in vivo.
Series [2] in a line: Bioavailability in […] rat. The following applies: in vivo.
Series [3] can be described thus: Clearance in iv dosed rat. To be noted: in vivo.
Series [4] can be described thus: Cmax in squirrel monkey at 2 mg/kg. Further details: dose 2 mg/kg. The following applies: saimiri, in vivo.
Series [5] is described as follows: Cmax in squirrel monkey at 0.4 mg/kg. The following applies: saimiri, in vivo. Further details: dose 0.4 mg/kg.

Usually Cmax stands for the highest concentration seen after dosing. For orientation: bioavailability means the share of a dose that reaches the circulation, judged against a reference dose that is usually intravenous. One may read the clearance as the rate of elimination divided by the concentration. For `Cc1noc(/C(=C/c2cccc(-c3cc(C(C)(C)S(C)(=O)=O)cc4cccnc34)c2)c2ccc(S(C)(=O)=O)cc2)n1`, the Cmax in series [1] was determined as 3800 nM. The compound further yielded a bioavailability in series [2] of 100%. The clearance in series [3] came out at 7 mL/min/kg.
`CC(C)(c1cc(-c2cccc(CC(F)(c3ccc(S(C)(=O)=O)cc3)S(=O)(=O)C3CC3)c2)c2ncccc2c1)S(C)(=O)=O` (single isomer, unassigned; Enantio B) had a Cmax in series [4] of 1900 nM. In series [2], this compound yielded a bioavailability of 99%. This compound showed a clearance in series [3] of 3 mL/min/kg.
With `CC(C)(c1cc(-c2cccc(CC(F)(c3ccc(S(C)(=O)=O)cc3)C(O)(C3CC3)C3CC3)c2)c2ncccc2c1)S(C)(=O)=O.Cl` (single isomer, unassigned), the bioavailability in series [2] stood at 69%. In series [3], this compound showed a clearance of 11 mL/min/kg.
In series [2], `CC(C)(O)C(F)(Cc1cccc(-c2cc(C(C)(C)S(C)(=O)=O)cc3cccnc23)c1)c1ccc(S(C)(=O)=O)cc1` (centres undefined) showed a bioavailability of 84%. Besides, in series [3], the clearance stood at 17 mL/min/kg.
Compound `CC(C)(c1cc(-c2cccc(CC(F)(c3ccc(S(C)(=O)=O)cc3)C(O)(C3CC3)C3CC3)c2)c2ncccc2c1)S(C)(=O)=O.CCl` (centres undefined) registered a bioavailability in series [2] of 99%. The same compound registered a clearance in series [3] of 8 mL/min/kg.
For `CC(C)(c1cc(-c2cccc(CC(F)(c3ccc(S(C)(=O)=O)cc3)S(=O)(=O)C3CC3)c2)c2ncccc2c1)S(C)(=O)=O.Cl` (single isomer, unassigned), in that order: 36% and 9 mL/min/kg.
The matching figures for `CC(C)(c1cc(-c2cccc(CC(c3ccc(S(C)(=O)=O)cc3)S(C)(=O)=O)c2)c2ncccc2c1)S(C)(=O)=O` (centres undefined): 1% and 76 mL/min/kg.
As to `CC(C)(c1cc(-c2cccc(CC(F)(c3ccc(S(C)(=O)=O)cc3)S(C)(=O)=O)c2)c2ncccc2c1)S(C)(=O)=O` (centres undefined), the bioavailability in series [2] turned out to be 53%. The same compound gave a clearance in series [3] of 9 mL/min/kg.
For `COP(=O)(OC)C(F)(Cc1cccc(-c2cc(C(C)(C)S(C)(=O)=O)cc3cccnc23)c1)c1ccc(S(C)(=O)=O)cc1` (centres undefined), in that order: 51% and 177 mL/min/kg.
In series [2], `COP(=O)(OC)C(Cc1cccc(-c2cc(C(C)(C)S(C)(=O)=O)cc3cccnc23)c1)c1ccc(S(C)(=O)=O)cc1` (centres undefined) showed a bioavailability of 3%. In series [3], this compound returned a clearance of 48 mL/min/kg.
In turn, `CC(C)(c1cc(-c2cccc(CC(CO)c3ccc(S(C)(=O)=O)cc3)c2)c2ncccc2c1)S(C)(=O)=O` (centres undefined) displayed a bioavailability in series [2] of 9%. The clearance in series [3] is 51 mL/min/kg.
In the case of `CC(C)(O)C(Cc1cccc(-c2cc(C(C)(C)S(C)(=O)=O)cc3cccnc23)c1)c1ccc(S(C)(=O)=O)cc1` (centres undefined), the bioavailability in series [2] worked out at 21%. The compound also showed a clearance in series [3] of 50 mL/min/kg.
`CC(C)(c1cc(-c2cccc(CC(F)(c3ccc(S(C)(=O)=O)cc3)C(O)(C3CC3)C3CC3)c2)c2ncccc2c1)S(C)(=O)=O` (single isomer, unassigned; Enantio B): the peak level in series [5] (Cmax) was 100 nM. This compound also had a bioavailability in series [2] of 99%. The same compound came in with a clearance in series [3] of 38 mL/min/kg.
